Data as given in PubChem BioAssay AID1963448 (Molecular Pharmacology Branch, DTP, NCI, 2024).
pIC50: −log10 of the molar value.

System: 616215-338-R-J1-PDC complex spheroid growth, % test/control
Test: Anticancer human tumor 616215-338-R-J1-PDC patient-derived colon adenocarcinoma cell line growth inhibition [Asc]
Conditions: for pIC50: curve of first compound; for viability, T/C: stronger effect = lower value
Procedure: Multicellular complex tumor spheroid response to apoptosis pathway targeting inhibitors Alrizomadlin, Pelcitoclax, and Dasminapant in combination with a variety of drugs and investigational agents in selected tumor cell lines
The MDM2 inhibitor alrizomadlin, the Bcl-2/Bcl-xL inhibitor pelcitoclax, and the IAPs inhibitor dasminapant were evaluated both individually and in combination with standard of care and investigational anticancer small molecules within a complex spheroid model of solid tumors. . Complex spheroids include a stromal component modeled by human endothelial cells (HUVEC) and fibroblasts modeled by human mesenchymal stem cells (MSCs). The concentration ranges selected for each drug and investigational agent were based upon clinically achievable concentrations if the clinical Cmax of the agent was known.
Compounds. The drugs and investigational agents: alrizomadlin (APG-115; NSC831270), pelcitoclax (APG-1252; NSC835773), dasminapant (APG-1387;NSC834197), TAK-243 (NSC785004), copanlisib (NSC809693), olaparib (NSC753686), talazoparib (NSC767125), cobimetinib (NSC 768068), eltanexor (KPT-8602, NSC 794443), abemaciclib (NSC 768073), sotorasib (NSC818433), adagrasib (NSC 831453), MRTX-1133 (NSC 836407), Iadademestat (ORY1001, NSC 806812), and RMC-4630 (NSC839698), were obtained from the NCI Developmental Therapeutics Program Chemical Repository. The FDA-approved anticancer drug set is available from the Developmental Therapeutics Program at https://dtp.cancer.gov/organization/dscb/obtaining/available plates.htm. […] The stock solutions were prepared in dimethyl sulfoxide (DMSO, Sigma-Aldrich, St. Louis, MO, cat. D2650) at 800-fold the tested concentration and stored at -70 degrees C prior to their use. All drugs and investigational agents were tested over a range starting from a high concentration at or near the clinical Cmax and decreasing in half-log increments. If the clinical Cmax for an agent had not been determined, the highest concentration tested was 10 microM.
The patient-derived cancer (PDC) cell lines include five colon adenocarcinomas: 186277-243-T-J2-PDC, 616215-338-R-J1-PDC, 439559-082-T-J2-PDC, 463943-066-T-J2-PDC, and 519858-162-T-J1-PDC; three pancreatic carcinomas: 323965-272-R-J2-PDC, 521955-158-R6-J3-PDC, and 521955-158-R2-J5-PDC; two uterine sarcomas: 327498-152-R-J2-PDC and 993429-296-R-J1-PDC; two rhabdomyosarcomas: 755483-174-R-J1-PDC and 772245-204-R-J1-PDC; two soft tissue sarcomas: 126254-015-R-J1-PDC and 494315-158-R-J1-PDC; two malignant fibrous histiocytomas: 317291-083-R-J1-PDC and 596521-263-R-J1-PDC; two breast carcinomas: 171881-019-R-J1-PDC and 885512-296-R-J2-PDC; and one ovarian carcinoma: 6556581-035-R-J-PDC were obtained from the NCI PDMR, (https://pdmr.cancer.gov). The established cell lines HSSY-2 synovial sarcoma (RRID:CVCL 8719), SYO-1 synovial sarcoma (RRID:CVCL_7146), MPNST malignant peripheral neural sheath tumor were obtained from the Sloan Kettering Institute. The following established cell lines were purchased from the American Type Culture Collection (ATCC, Manassas, VA), Sor the received from the NCI repository:, PANC-1 pancreatic carcinoma (CRL-1469, RRID:CVCL_0480), OVCAR-5 ovarian carcinoma (RRID:CVCL_1628), OVCAR-8 ovarian carcinoma (RRID:CVCL_1629), , MCF-7 breast carcinoma (CRL-12584, RRID:CVCL_0031), MDA-MB-231 breast carcinoma (CRL-12532, RRID:CVCL_0062), NCI-H1876 small cell lung carcinoma (CRL-5902, RRID:CVCL_1503), NCI-H510A small cell lung carcinoma (HTB-184, RRID:CVCL_1565), NCI-H1417 (CRL-5869, RRID:CVCL_1469), and NCI-H196 small cell lung carcinoma (CRL-5823, RRID:CVCL_1509). Dr. Peter Houghton (Greehey Children's Cancer Research Institute, University of Texas Health Science Center, San Antonio, TX) provided Rh-18 rhabdomyosarcoma (RRID:CVCL_1659). Pooled donor human umbilical vein endothelial cells (HUVEC, Lonza, cat. CC-2519) and human mesenchymal stem cells (hMSC, Lonza, cat. PT-2501) were purchased from Lonza (Walkersville, MD).
Cell Culture. […]
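Note: spheroids exposed to agents for seven days before readout.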
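Throughout, for viability, T/C: 100% = DMSO vehicle control viability.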

## Cn1ncnc1[C@H]1c2n[nH]c(=O)c3cc(F)cc(c23)N[C@@H]1c1ccc(F)cc1 + Cc1c(S(C)(=O)=O)c(-c2cc(F)cc(N3CCN(c4ccc(NS(=O)(=O)c5ccc(NC(CCN6CCC(C(=O)OCCCP(=O)(O)O)CC6)CSc6ccccc6)c(S(=O)(=O)C(F)(F)F)c5)cc4)CC3)c2)c(-c2ccc(Cl)cc2)n1C(C)C
Second compound 0.1 µM
  pIC50: < 7.00
Second compound 0.316 µM
  pIC50: < 7.00
Second compound 1 µM
  pIC50: 7.81
Second compound 3.16 µM
  pIC50: > 9.50
Second compound 10 µM
  pIC50: > 9.50
Second compound 0.1 µM, first compound 0.000316 µM
  viability, T/C: 88.5%
Second compound 0.1 µM, first compound 0.001 µM
  viability, T/C: 104%
Second compound 0.1 µM, first compound 0.00316 µM
  viability, T/C: 85.2%
Second compound 0.1 µM, first compound 0.01 µM
  viability, T/C: 90.1%
Second compound 0.1 µM, first compound 0.0316 µM
  viability, T/C: 86.2%
Second compound 0.1 µM, first compound 0.1 µM
  viability, T/C: 84.9%
Second compound 0.316 µM, first compound 0.000316 µM
  viability, T/C: 86.4%
Second compound 0.316 µM, first compound 0.001 µM
  viability, T/C: 87.6%
Second compound 0.316 µM, first compound 0.00316 µM
  viability, T/C: 90.8%
Second compound 0.316 µM, first compound 0.01 µM
  viability, T/C: 85.8%
Second compound 0.316 µM, first compound 0.0316 µM
  viability, T/C: 76.6%
Second compound 0.316 µM, first compound 0.1 µM
  viability, T/C: 69.3%
Second compound 1 µM, first compound 0.000316 µM
  viability, T/C: 66.9%
Second compound 1 µM, first compound 0.001 µM
  viability, T/C: 67.8%
Second compound 1 µM, first compound 0.00316 µM
  viability, T/C: 63.7%
Second compound 1 µM, first compound 0.01 µM
  viability, T/C: 54%
Second compound 1 µM, first compound 0.0316 µM
  viability, T/C: 42.7%
Second compound 1 µM, first compound 0.1 µM
  viability, T/C: 32.9%
Second compound 3.16 µM, first compound 0.000316 µM
  viability, T/C: 38.9%
Second compound 3.16 µM, first compound 0.001 µM
  viability, T/C: 39%
Second compound 3.16 µM, first compound 0.00316 µM
  viability, T/C: 27.3%
Second compound 3.16 µM, first compound 0.01 µM
  viability, T/C: 15.8%
Second compound 3.16 µM, first compound 0.0316 µM
  viability, T/C: 9.58%
Second compound 3.16 µM, first compound 0.1 µM
  viability, T/C: 4.09%
Second compound 10 µM, first compound 0.000316 µM
  viability, T/C: 25.9%
Second compound 10 µM, first compound 0.001 µM
  viability, T/C: 20%
Second compound 10 µM, first compound 0.00316 µM
  viability, T/C: 10.4%
Second compound 10 µM, first compound 0.01 µM
  viability, T/C: 4.53%
Second compound 10 µM, first compound 0.0316 µM
  viability, T/C: 2.52%
Second compound 10 µM, first compound 0.1 µM
  viability, T/C: 1.65%

## CCN1C(C(=O)NC23CCC(C(=O)O)(CC2)CC3)C(c2cccc(Cl)c2F)C2(C(=O)Nc3cc(Cl)ccc32)C12CCCCC2 (stereo not given) + Cc1c(S(C)(=O)=O)c(-c2cc(F)cc(N3CCN(c4ccc(NS(=O)(=O)c5ccc(NC(CCN6CCC(C(=O)OCCCP(=O)(O)O)CC6)CSc6ccccc6)c(S(=O)(=O)C(F)(F)F)c5)cc4)CC3)c2)c(-c2ccc(Cl)cc2)n1C(C)C
Second compound 0.1 µM
  pIC50: 6.31
Second compound 0.316 µM
  pIC50: 6.91
Second compound 1 µM
  pIC50: 7.96
Second compound 3.16 µM
  pIC50: > 8.02
Second compound 10 µM
  pIC50: > 8.02
Second compound 0.1 µM, first compound 0.00949 µM
  viability, T/C: 92.5%
Second compound 0.1 µM, first compound 0.03 µM
  viability, T/C: 101%
Second compound 0.1 µM, first compound 0.0949 µM
  viability, T/C: 77.3%
Second compound 0.1 µM, first compound 0.3 µM
  viability, T/C: 50.7%
Second compound 0.1 µM, first compound 0.949 µM
  viability, T/C: 43.3%
Second compound 0.1 µM, first compound 3 µM
  viability, T/C: 2.3%
Second compound 0.316 µM, first compound 0.00949 µM
  viability, T/C: 89.4%
Second compound 0.316 µM, first compound 0.03 µM
  viability, T/C: 81.1%
Second compound 0.316 µM, first compound 0.0949 µM
  viability, T/C: 51.6%
Second compound 0.316 µM, first compound 0.3 µM
  viability, T/C: 34.3%
Second compound 0.316 µM, first compound 0.949 µM
  viability, T/C: 3.82%
Second compound 0.316 µM, first compound 3 µM
  viability, T/C: 0.48%
Second compound 1 µM, first compound 0.00949 µM
  viability, T/C: 53.2%
Second compound 1 µM, first compound 0.03 µM
  viability, T/C: 29.8%
Second compound 1 µM, first compound 0.0949 µM
  viability, T/C: 17.1%
Second compound 1 µM, first compound 0.3 µM
  viability, T/C: 7.2%
Second compound 1 µM, first compound 0.949 µM
  viability, T/C: 2.56%
Second compound 1 µM, first compound 3 µM
  viability, T/C: 0.18%
Second compound 3.16 µM, first compound 0.00949 µM
  viability, T/C: 20.3%
Second compound 3.16 µM, first compound 0.03 µM
  viability, T/C: 5.05%
Second compound 3.16 µM, first compound 0.0949 µM
  viability, T/C: 1.2%
Second compound 3.16 µM, first compound 0.3 µM
  viability, T/C: 0.74%
Second compound 3.16 µM, first compound 0.949 µM
  viability, T/C: 0.06%
Second compound 3.16 µM, first compound 3 µM
  viability, T/C: 0.2%
Second compound 10 µM, first compound 0.00949 µM
  viability, T/C: 4.94%
Second compound 10 µM, first compound 0.03 µM
  viability, T/C: 1.17%
Second compound 10 µM, first compound 0.0949 µM
  viability, T/C: 0.43%
Second compound 10 µM, first compound 0.3 µM
  viability, T/C: 0.5%
Second compound 10 µM, first compound 0.949 µM
  viability, T/C: 1.65%
Second compound 10 µM, first compound 3 µM
  viability, T/C: 1.41%
